Laboratory results taken from US6545002B1 (University of Virginia Patent Foundation, priority 1999, dated 2003).
Read-outs that look alike come from different tables or passages of the source.

Key:
[1] = target: T1, recombinant human A1 receptors (hA1) (Homo sapiens, UniProt P30542); test: Radioligand binding ([3H]CPX) at recombinant human A1 receptors in HEK-293 cells
T1 sequence (P30542 1-326): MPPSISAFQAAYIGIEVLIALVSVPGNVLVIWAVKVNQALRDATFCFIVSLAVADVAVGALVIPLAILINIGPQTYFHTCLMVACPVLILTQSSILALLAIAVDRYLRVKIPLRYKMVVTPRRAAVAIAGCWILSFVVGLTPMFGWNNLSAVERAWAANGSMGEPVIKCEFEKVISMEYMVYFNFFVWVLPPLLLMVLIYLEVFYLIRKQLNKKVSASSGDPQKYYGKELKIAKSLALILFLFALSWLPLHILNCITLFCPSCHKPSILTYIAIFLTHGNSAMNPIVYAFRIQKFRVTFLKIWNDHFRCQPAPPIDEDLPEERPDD
Experimental: (§1) All non-radioactive compounds were initially dissolved in DMSO, and diluted with buffer to the final concentration, where the amount of DMSO never exceeded 2%. Incubations were terminated by rapid filtration over Whatman GF/B filters, using a Brandell cell harvester (Brandell, Gaithersburg, Md.). The tubes were rinsed three times with 3 mL buffer each.
(§2) At least six different concentrations of competitor, spanning 3 orders of magnitude adjusted appropriately for the IC50 of each compound, were used. IC50 values, calculated with the nonlinear regression method implemented in (Graph-Pad Prism, San Diego, Calif.), were converted to apparent Ki values as described.
(§3) The potency of the xanthine derivatives at human A2B receptors was evaluated using two binding assays. […] In order to determine selectivity, the xanthines were evaluated using standard binding assays at A1, A2A, and A3 receptors.

A3 receptors (r) = target: T2, A3 receptors (r) (Rattus norvegicus, UniProt P28647); test: Binding at rat A3 receptors, values marked (r) in Table 1
T2 sequence (P28647 1-320): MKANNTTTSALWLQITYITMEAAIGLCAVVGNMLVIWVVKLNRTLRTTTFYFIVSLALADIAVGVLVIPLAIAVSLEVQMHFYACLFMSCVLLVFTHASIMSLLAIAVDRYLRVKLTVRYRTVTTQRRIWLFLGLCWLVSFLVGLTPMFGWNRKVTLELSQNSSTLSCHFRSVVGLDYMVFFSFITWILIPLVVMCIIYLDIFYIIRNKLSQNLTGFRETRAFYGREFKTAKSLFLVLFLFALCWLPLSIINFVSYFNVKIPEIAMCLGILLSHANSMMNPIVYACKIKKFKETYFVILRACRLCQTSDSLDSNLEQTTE

human A3 receptors (hA3) [2] = target: T3, human A3 receptors (hA3) (Homo sapiens, UniProt P0DMS8); test: Displacement of [125I]ABA binding at human A3 receptors expressed in HEK-293 cells; conditions: Table 1; [125I]ABA, HEK-293; read-out: hA3 Ki or IC50
T3 construct: expressed in transfected cells; host or cells: HEK-293
T3 sequence (P0DMS8 1-318): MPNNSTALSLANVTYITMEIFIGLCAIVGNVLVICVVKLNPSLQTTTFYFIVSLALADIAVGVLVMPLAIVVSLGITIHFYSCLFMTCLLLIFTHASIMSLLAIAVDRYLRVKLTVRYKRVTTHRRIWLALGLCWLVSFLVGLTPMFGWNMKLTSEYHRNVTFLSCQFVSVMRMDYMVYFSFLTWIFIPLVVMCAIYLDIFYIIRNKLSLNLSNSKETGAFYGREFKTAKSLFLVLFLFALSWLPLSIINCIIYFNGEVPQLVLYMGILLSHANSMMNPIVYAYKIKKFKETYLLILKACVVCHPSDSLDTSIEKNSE

rat A2A receptors (rA2A) = target: T4, rat A2A receptors (rA2A) (Rattus norvegicus, UniProt P30543); test: Displacement of [3H]CGS 21680 binding in rat striatal membranes
T4 construct: to A2A receptors from rat striatal membranes was performed as described; from tissue; host or cells: rat striatal membranes
T4 sequence (P30543 whole entry): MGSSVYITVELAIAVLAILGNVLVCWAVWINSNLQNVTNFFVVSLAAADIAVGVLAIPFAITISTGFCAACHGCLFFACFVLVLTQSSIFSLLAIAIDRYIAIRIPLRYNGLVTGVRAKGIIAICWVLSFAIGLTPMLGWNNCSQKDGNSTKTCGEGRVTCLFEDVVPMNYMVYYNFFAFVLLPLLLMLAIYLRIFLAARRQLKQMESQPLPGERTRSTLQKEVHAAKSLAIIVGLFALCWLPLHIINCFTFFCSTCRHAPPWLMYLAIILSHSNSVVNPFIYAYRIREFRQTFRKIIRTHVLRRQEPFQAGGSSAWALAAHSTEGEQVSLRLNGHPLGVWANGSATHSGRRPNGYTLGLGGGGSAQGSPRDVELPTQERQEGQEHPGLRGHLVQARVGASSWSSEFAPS

rat A1 receptors (rA1) = target: T5, rat A1 receptors (rA1) (Rattus norvegicus, UniProt P25099); test: Displacement of [3H]R-PIA binding in rat brain (cerebral cortical) membranes
T5 construct: to A1 receptors from rat cerebral cortical membranes; from tissue; host or cells: rat cerebral cortical (brain) membranes
T5 sequence (P25099 1-326): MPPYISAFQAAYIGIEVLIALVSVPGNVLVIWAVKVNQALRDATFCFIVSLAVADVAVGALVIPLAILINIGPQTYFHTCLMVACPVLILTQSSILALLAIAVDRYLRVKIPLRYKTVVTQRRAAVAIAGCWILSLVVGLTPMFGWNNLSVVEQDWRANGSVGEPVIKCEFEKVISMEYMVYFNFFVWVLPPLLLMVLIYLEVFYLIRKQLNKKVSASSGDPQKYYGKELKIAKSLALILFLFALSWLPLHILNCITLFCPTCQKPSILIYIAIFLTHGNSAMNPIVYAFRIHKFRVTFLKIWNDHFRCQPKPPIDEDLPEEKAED

[3] = target: T6, human A2B receptors (hA2B) (Homo sapiens, UniProt P29275); test: Radioligand binding ([125I]ABOPX / [3H]ZM241385) at human A2B receptors expressed in HEK-293 cells; conditions: for hA1/hA2B / hA2A/hA2B / hA3/hA2B / rA1/hA2B: Ki ratio
T6 construct: expressed in transfected cells; host or cells: HEK-293 (HEK-A2B, G418-selected)
T6 sequence (P29275 1-332): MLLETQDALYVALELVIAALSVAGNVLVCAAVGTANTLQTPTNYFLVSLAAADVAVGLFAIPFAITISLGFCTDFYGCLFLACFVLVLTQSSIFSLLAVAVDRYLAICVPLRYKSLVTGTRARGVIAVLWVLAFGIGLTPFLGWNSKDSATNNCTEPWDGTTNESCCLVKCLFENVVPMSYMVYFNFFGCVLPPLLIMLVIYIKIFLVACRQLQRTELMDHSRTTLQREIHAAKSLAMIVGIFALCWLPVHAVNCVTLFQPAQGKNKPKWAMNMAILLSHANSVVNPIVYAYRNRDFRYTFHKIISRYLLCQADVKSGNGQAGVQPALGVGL

[4] = target: recombinant human A2A receptors (hA2A) (Homo sapiens, UniProt P29274); test: Radioligand binding (125I-ZM241385) at recombinant human A2A receptors in HEK-293 cells
Chain of recombinant human A2A receptors (hA2A) (P29274 whole entry): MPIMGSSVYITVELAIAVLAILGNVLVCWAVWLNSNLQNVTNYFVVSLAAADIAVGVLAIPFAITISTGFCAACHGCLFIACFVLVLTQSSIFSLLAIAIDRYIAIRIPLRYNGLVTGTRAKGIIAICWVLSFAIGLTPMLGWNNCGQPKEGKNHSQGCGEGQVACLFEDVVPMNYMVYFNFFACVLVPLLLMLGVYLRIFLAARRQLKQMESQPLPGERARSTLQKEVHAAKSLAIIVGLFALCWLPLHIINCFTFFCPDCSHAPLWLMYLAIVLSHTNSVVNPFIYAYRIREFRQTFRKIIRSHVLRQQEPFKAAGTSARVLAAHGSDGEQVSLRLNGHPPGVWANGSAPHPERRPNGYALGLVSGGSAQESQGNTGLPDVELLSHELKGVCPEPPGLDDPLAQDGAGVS
Experimental: as §1, §2, §3

human A3 receptors (hA3) [5] = target: T3, human A3 receptors (hA3); test: Displacement of [125I]AB-MECA binding at human A3 receptors expressed in HEK-293 cells (Table 4)
[6] = read-out: hA1 Ki, values marked (h), Table 1, recombinant human A1, HEK 293
[7] = Table 1, [3H]CGS 21680, rat striatal membranes, read-out: rA2A Ki or IC50
[8] = Table 1, [3H]R-PIA, rat brain membranes, read-out: rA1 Ki or IC50
[9] = Table 1, [125I]ABOPX, HEK-293, read-out: hA2B Ki or IC50
[10] = read-out: hA2A Ki, values marked (h), Table 1, recombinant human A2A, HEK 293
[11] = read-out: hA1 Ki, values marked (h)^a, Table 4, vs [3H]CPX, HEK-293
[12] = Table 4, unmarked value, first of two binding assays, read-out: hA2B Ki
[13] = read-out: hA2A Ki, values marked (h)^a, Table 4, vs [125I]ZM241385, HEK-293
[14] = read-out: Ki value at human A2B receptors

SMILES | Ki (rat A2A receptors (rA2A); Table 4, read-out: rA2A Ki) [nM] | Ki (human A3 receptors (hA3) [5]) [nM] | Ki (rat A1 receptors (rA1); Table 4, read-out: rA1 Ki) [nM] | rA1/hA2B ([3]; Table 4) | Ki [3, 12] [nM] | Ki [3, 14] [nM] | also measured
CCCn1c(=O)c2[nH]c(-c3ccc(OCC(=O)O)cc3)nc2n(CCC)c1=O [Compound 4a, 8-[4-[[[carboxy]methyl]oxy]phenyl]-1,3-dipropylxanthine] | – | – | – | – | – | – | Ki [1, 6]: 175 ± 57 nM; Ki (A3 receptors (r)): 75700 nM; Ki (human A3 receptors (hA3) [2]): 3910 nM
C=CCn1c(=O)c2[nH]c(-c3ccc(OCC(=O)O)cc3)nc2n(CC=C)c1=O [Compound 5] | – | – | – | – | – | – | Ki [1, 6]: 1660 nM; Ki (rat A2A receptors (rA2A); [7]): 4290 nM; Ki (A3 receptors (r)): 173000 nM; Ki (rat A1 receptors (rA1); [8]): 756 ± 147 nM; hA1/hA2B ([3]; Table 1): 12; hA2A/hA2B ([3]; Table 1): 17; hA3/hA2B ([3]; Table 1): 5.8; Ki [3, 9]: 141 ± 29 nM; Ki [4, 10]: 2370 nM; Ki (human A3 receptors (hA3) [2]): 816 ± 91 nM
CCCCn1c(=O)c2[nH]c(-c3ccc(OCC(=O)O)cc3)nc2n(CCCC)c1=O [Compound 6] | – | – | – | – | – | – | Ki [1, 6]: 149 ± 83 nM; Ki (rat A2A receptors (rA2A); [7]): 874 ± 107 nM; Ki (A3 receptors (r)): 27500 nM; Ki (rat A1 receptors (rA1); [8]): 43.1 ± 9.9 nM; hA1/hA2B ([3]; Table 1): 3.1; hA2A/hA2B ([3]; Table 1): 53; hA3/hA2B ([3]; Table 1): 1.9; Ki [3, 9]: 48 ± 16.9 nM; Ki [4, 10]: 2540 nM; Ki (human A3 receptors (hA3) [2]): 90.3 ± 14.2 nM
CCCn1c(=O)c2[nH]c(-c3ccc(OCC(=O)NNC(=O)CCC(=O)O)cc3)nc2n(CCC)c1=O [Compound 42, 8-[4-[(Carboxymethyl)oxy]phenyl]-1,3-di-(n-propyl)xanthine N-[(3-Carboxy)-n-propionyl]hydrazide] | 174 ± 32 | 173 ± 27 | 73.3 ± 22 | 1.6 | 116 ± 10 | – | Ki [1, 11]: 219 nM; Ki ([3]; Table 4, footnote a: [125I]-ABOPX, read-out: hA2B Ki (value marked ^a) (converted)): 97.8 nM; Ki [4, 13]: 795 nM
CCCn1c(=O)c2[nH]c(-c3ccc(OCC(=O)NN4C(=O)CCC4=O)cc3)nc2n(CCC)c1=O [Compound 43, 8-[4-[(Carboxymethyl)oxy]phenyl]-1,3-di-(n-propyl)xanthine N,N-Succinylhydrazide] | 805 ± 44 | 766 ± 176 | 55.9 ± 25.1 | 3.0 | 18.6 ± 6.1 | – | Ki [1, 11]: 75.2 nM; Ki [4, 13]: 27.2 nM
CCCn1c(=O)c2[nH]c(-c3ccc(OCC(=O)NN4C(=O)[C@H]5CC=CC[C@H]5C4=O)cc3)nc2n(CCC)c1=O [Compound 52, 8-[4-[(Carboxymethyl)oxy]phenyl]-1,3-di-(n-propyl)xanthine N,N-(cis-1,2,3,6-Tetrahydrophthaloyl)hydrazide] | 689 ± 477 | 370 ± 190 | 36.4 ± 6.2 | 3.6 | – | 10 | Ki [1]: 129 nM; Ki [4]: 301 nM
CCCn1c(=O)c2[nH]c(-c3ccc(OCC(=O)NN4C(=O)C5=C(CCC5)C4=O)cc3)nc2n(CCC)c1=O [Compound 54, 8-[4-[(Carboxymethyl)oxy]phenyl]-1,3-di-(n-propyl)xanthine N,N-(1-Cyclopentene-1,2-dicarbonyl)hydrazide] | 1160 ± 337 | 309 ± 88 | 41.3 ± 6.4 | 1.9 | 21.5 ± 1.5 | – | –
CCCn1c(=O)c2[nH]c(-c3ccc(OCC(=O)NNC(=O)C4=C(C(=O)O)CCCC4)cc3)nc2n(CCC)c1=O [Compound 55, 8-[4-[(Carboxymethyl)oxy]phenyl]-1,3-di-(n-propyl)xanthine N-[2-((1-Carboxy)-1-cyclohexene)-carbonyl]hydrazide] | 422 ± 136 | 438 ± 109 | 47.2 ± 6.8 | 2.7 | 17.3 ± 6.3 | 17 | Ki [1, 11]: 145 nM; Ki [4, 13]: 95.6 nM
CCCn1c(=O)c2[nH]c(-c3ccc(OCC(=O)NN4C(=O)C5=C(CCCC5)C4=O)cc3)nc2n(CCC)c1=O [Compound 56, 8-[4-[(Carboxymethyl)oxy]phenyl]-1,3-di-(n-propyl)xanthine N,N-(3,4,5,6-Tetrahydrophthaloyl)hydrazide] | 415 ± 157 | 245 ± 45 | 61.9 ± 11.3 | 1.7 | 35.8 ± 0.7 | – | –
CCCn1c(=O)c2[nH]c(-c3ccc(OCC(=O)NN4C(=O)CCCC4=O)cc3)nc2n(CCC)c1=O [Compound 58, 8-[4-[(Carboxymethyl)oxy]phenyl]-1,3-di-(n-propyl)xanthine N,N-Glutarylhydrazide] | 135 ± 39 | 200 ± 45 | 14 ± 2.3 | 0.6 | 22 ± 5.5 | – | –
CCCn1c(=O)c2[nH]c(-c3ccc(OCC(=O)NN4C(=O)CC(O)CC4=O)cc3)nc2n(CCC)c1=O [Compound 59, 8-[4-[(Carboxymethyl)oxy]phenyl]-1,3-di-(n-propyl)xanthine N,N-(3-Hydroxy)glutarylhydrazide] | 164 ± 61 | 290 ± 88 | 41.2 ± 16.6 | 1.6 | 25.7 ± 5.5 | – | –
CCCn1c(=O)c2[nH]c(-c3ccc(OCC(=O)NNC(=O)[C@H](CCC(=O)O)NC(=O)C(F)(F)F)cc3)nc2n(CCC)c1=O [Compound 60, 8-[4-[(Carboxymethyl)oxy]phenyl]-1,3-di-(n-propyl)xanthine N-[(4-Carboxy-(2S)-Trifluoroacetamido)-n-butanoyl]hydrazide] | 872 ± 412 | 430 ± 44 | 70.8 ± 30.9 | 2.9 | 24.8 ± 7.3 | 25 | –
CCCn1c(=O)c2[nH]c(-c3ccc(OCC(=O)NN4C(=O)CC[C@H](NC(=O)C(F)(F)F)C4=O)cc3)nc2n(CCC)c1=O [Compound 61] | 440 ± 106 | 726 ± 245 | 53.5 ± 6.5 | 4.1 | – | 13 | Ki [1]: 149 nM; Ki [4]: 178 nM
CCCn1c(=O)c2[nH]c(-c3ccc(OCC(=O)NNC(=O)CNC(=O)CNC(=O)OCc4ccccc4)cc3)nc2n(CCC)c1=O [Compound 64, 8-[4-[(Carboxymethyl)oxy]phenyl]-1,3-di-(n-propyl)xanthine N-(N-Benzyloxycarbonyl-glycylglycinyl)hydrazide] | 609 ± 95 | 323 ± 47 | 36 ± 6.6 | 3.3 | 10.8 ± 5 | 11 | Ki [1, 11]: 200 ± 22 nM; Ki [4, 13]: 830 ± 84 nM
